Columns and labels:
Assay type in all cases: functional
SR = experiment: Growth inhibition of human SR cells assessed as cell growth at 1 uM after 48 hrs by SRB assay; conditions: read-out: Activity
NCI/ADR-RES = experiment: Growth inhibition of human NCI/ADR-RES cells assessed as cell growth at 1 mM after 48 hrs by SRB assay; conditions: read-out: Activity
HL-60(TB) [1] = experiment: Growth inhibition of human HL-60(TB) cells after 48 hrs by […] growth inhibition assay; conditions: HL-60, 48 h
T47D = experiment: Growth inhibition of human T47D cells assessed as cell growth at 100 uM after 48 hrs by SRB assay; conditions: read-out: Activity
HL-60(TB) [2] = experiment: Growth inhibition of human HL-60(TB) cells assessed as cell growth at 1 uM after 48 hrs by SRB assay; conditions: HL-60, 48 h, read-out: Activity
HL-60(TB) [3] = experiment: Growth inhibition of human HL-60(TB) cells assessed as cell growth at 0.1 uM after 48 hrs by SRB assay; conditions: HL-60, 48 h, read-out: Activity
MOLT-4 [4] = experiment: Growth inhibition of human MOLT4 cells assessed as cell growth at 1 uM after 48 hrs by SRB assay; conditions: MOLT-4, 48 h, read-out: Activity
MOLT-4 [5] = experiment: Growth inhibition of human MOLT4 cells assessed as cell growth at 0.1 uM after 48 hrs by SRB assay; conditions: MOLT-4, 48 h, read-out: Activity
K562 = experiment: Growth inhibition of human K562 cells assessed as cell growth at 1 uM after 48 hrs by SRB assay; conditions: K562, 48 h, read-out: Activity
MOLT-4 [6] = experiment: Growth inhibition of human MOLT4 cells after 48 hrs by […] growth inhibition assay; conditions: MOLT-4, 48 h
SK-MEL-28 = experiment: Growth inhibition of human SK-MEL-28 cells assessed as cell growth at 1 mM after 48 hrs by SRB assay; conditions: SK-MEL-28, 48 h, read-out: Activity
SW-620 = experiment: Growth inhibition of human SW620 cells assessed as cell growth at 100 uM after 48 hrs by SRB assay; conditions: SW-620, 48 h, read-out: Activity
PC-3 [7] = experiment: Growth inhibition of human PC3 cells assessed as cell growth at 1 mM after 48 hrs by SRB assay; conditions: PC-3, 48 h, read-out: Activity
PC-3 [8] = experiment: Growth inhibition of human PC3 cells assessed as cell growth at 0.1 uM after 48 hrs by SRB assay; conditions: PC-3, 48 h, read-out: Activity
MDA-MB-468 [9] = experiment: Growth inhibition of human MDA-MB-468 cells assessed as cell growth at 0.1 uM after 48 hrs by SRB assay; conditions: MDA-MB-468, 48 h, read-out: Activity
MDA-MB-468 [10] = experiment: Growth inhibition of human MDA-MB-468 cells assessed as cell growth at 100 uM after 48 hrs by SRB assay; conditions: MDA-MB-468, 48 h, read-out: Activity
MDA-MB-468 [11] = experiment: Growth inhibition of human MDA-MB-468 cells assessed as cell growth at 1 uM after 48 hrs by SRB assay; conditions: MDA-MB-468, 48 h, read-out: Activity
MDA-MB-468 [12] = experiment: Growth inhibition of human MDA-MB-468 cells assessed as cell growth at 1 mM after 48 hrs by SRB assay; conditions: MDA-MB-468, 48 h, read-out: Activity
[13] = read-out: LC50 (the source's name)
[14] = read-out: pLC50 (the source's name) (converted)

SMILES | growth at 1 µM (SR) [%] | growth at 1000 µM (NCI/ADR-RES) [%] | GI50 (HL-60(TB) [1]; read-out: GI50) [µM] | CC50 (HL-60(TB) [1]; [13]) [µM] | GI50 (HL-60(TB) [1]; read-out: pGI50 (converted)) [µM] | CC50 (HL-60(TB) [1]; [14]) [µM] | growth at 100 µM (T47D) [%] | growth at 1 µM (HL-60(TB) [2]) [%] | growth at 0.1 µM (HL-60(TB) [3]) [%] | growth at 1 µM (MOLT-4 [4]) [%] | growth at 0.1 µM (MOLT-4 [5]) [%] | growth at 1 µM (K562) [%] | GI50 (MOLT-4 [6]; read-out: GI50) [µM] | LC50 (MOLT-4 [6]; read-out: LC50) [µM] | TGI (MOLT-4 [6]; read-out: TGI) [µM] | GI50 (MOLT-4 [6]; read-out: pGI50 (converted)) [µM] | LC50 (MOLT-4 [6]; read-out: pLC50 (converted)) [µM] | TGI (MOLT-4 [6]; read-out: pTGI (converted)) [µM] | growth at 1000 µM (SK-MEL-28) [%] | growth at 100 µM (SW-620) [%] | other results
CNC(=O)NC[C@H]1O[C@@H](n2cnc3c(NC(=O)Nc4ccccc4)ncnc32)[C@H](O[Si](C)(C)C(C)(C)C)[C@@H]1CC(=O)N(C)OC | 89 | 55 | 1.81 | > 100 | 1.82 | 16.2 | 56 | 86 | 95 | 90 | 96 | 95 | 2.13 | > 100 | 9.36 | 2.24 | > 100 | 9.33 | 27 | 65 | TGI (HL-60(TB) [1]; read-out: TGI): 4.34 µM; TGI (HL-60(TB) [1]; read-out: pTGI (converted)): 4.37 µM
CCOC(=O)C[C@H]1[C@@H](O[Si](C)(C)C(C)(C)C)[C@H](n2cnc3c(NC(=O)Nc4ccccc4)ncnc32)O[C@@H]1CNC(=O)NC | 70 | 59 | 3.01 | > 100 | 3.02 | > 100 | 16 | 110 | 85 | 84 | 93 | 93 | 2.39 | > 100 | 23.3 | 2.4 | > 100 | 23.4 | -91 | 28 | growth at 1000 µM (PC-3 [7]): -77%; growth at 0.1 µM (PC-3 [8]): 121%
CNC(=O)NC[C@H]1O[C@@H](n2cnc3c(NC(=O)Nc4ccccc4)ncnc32)[C@H](O[Si](C)(C)C(C)(C)C)[C@@H]1O[Si](C)(C)C(C)(C)C | – | – | – | – | – | – | – | – | – | – | – | – | – | – | – | – | – | – | – | – | growth at 0.1 µM (MDA-MB-468 [9]): 101%; growth at 100 µM (MDA-MB-468 [10]): 6%; growth at 1000 µM (PC-3 [7]): 4%; growth at 1 µM (MDA-MB-468 [11]): 104%; growth at 0.1 µM (PC-3 [8]): 93%; growth at 1000 µM (MDA-MB-468 [12]): -35%

— ChEMBL document CHEMBL1681651, “A broad spectrum anticancer nucleoside with selective toxicity against human colon cells in vitro” (2011)
